How the values were obtained:
Type in all cases: in vivo
[1] = tested on: mouse colon cancer cell line MC38; assay: Antitumor effect in MC38 transplanted immune deficient CB17/Icr-Prkdc[scid]/CrlCrlj mice (Example 2)
Method: (§1) The MC38 cell suspension was transplanted subcutaneously at 2.0×10^6 cells/0.1 ml to the right chest of 6-week-old C57BL/6JJcl mice (CLEA Japan, Inc.) or CB17/Icr-Prkdc[scid]/CrlCrlj (Charles River Laboratories Japan Inc.). CB17/Icr-Prkdc[scid]/CrlCrlj mice are mice with immune deficiency due to lack of Tcells and B-cells in the peripheral blood.
(§2) The tumor was grown until reaching a TV of 50 to 300 mm^3 after the transplantation. Degimatic Caliper was used for tumor diameter measurement. The major diameter and the minor diameter of the tumor were measured, and TV was calculated from the following equation.
(§3) TV (mm^3)=major diameter (mm)×minor diameter (mm)×minor diameter (mm)/2
(§4) By a stratified random allocation method using TV as an index, ten C57BL/6JJcl mice were allocated to each group, and five CB17/Icr-Prkdc [scid]/CrlCrlj mice were allocated to each group. The day when grouping was performed was defined as Day 0. An electronic balance for animals was used for body weight measurement. The body weight change ratio on the nth day (BWCn) was calculated from the body weight on the nth day (BWn) in accordance with the following equation.
(§5) Body weight change ratio BWCn (%)=(BWn−BW0)/BW0×100
(§6) An appropriate amount of water for injection described in the Japanese Pharmacopeia was added for adjusting hypromellose concentration to 0.5 w/v %, and the mixture was then stirred with a stirrer to completely dissolve hypromellose, to prepare a 0.5% aqueous hypromellose solution. Benzoic acid salt of Compound A was ground with an agate mortar, and then suspended to a predetermined concentration with the 0.5% aqueous hypromellose solution, and ultrasonic treatment was performed to obtain a homogeneous suspension. The suspension containing Compound A was orally administered once a day for 21 consecutive days at a dose of 25 mg/kg/day. The dosage is indicated based on the free form of the Compound A.

[2] = tested on: mouse colon cancer cell line MC38; assay: Combination of Compound A and anti-mouse PD-1 antibody in MC38 transplanted wild type C57BL/6JJcl mice (Example 3); details: Aspin-Welch's t-test
Method: The MC38 cell suspension was transplanted subcutaneously at 2.0×10^6 cells/0.1 ml to the right chest of 6-week-old C57BL/6JJcl mice (CLEA Japan, Inc.).
as §2, §3
By a stratified random allocation method using TV as an index, 10 mice were allocated to each group. The day when grouping was performed was defined as Day 0.
An electronic balance for animals was used for body weight measurement. The body weight change ratio on the nth day (BWCn) was calculated from the body weight on the nth day (BWn) in accordance with the following equation.
as §5
An appropriate amount of water for injection described in the Japanese Pharmacopeia was added for adjusting hypromellose concentration to 0.5 w/v %, and the mixture was then stirred with a stirrer to completely dissolve hypromellose, to prepare a 0.5% aqueous hypromellose solution.
On the first day of administration (day 1), the diluted product was intraperitoneally administered with the dose of 0.05 mg/body of the anti-mouse PD-1 antibody.

[3] = tested on: mouse colon cancer cell strain MC38; assay: Flow cytometric analysis of tumor infiltrating leucocytes in MC38 transplanted mice (Example 1); details: Day 7, tumor infiltrating leucocytes, Compound A 25 mg/kg/day po 6 days, Dunnett test
Method: The mouse colon cancer cell strain MC38 was obtained from Dr. Yoshihiro Hayakawa (University of Toyama, Toyama, Japan). The MC38 cell strain was subjected to culture in an RPMI 1640 medium containing 10% fetal bovine serum and then to subculture in an incubator at 37° C. in the presence of 5% CO2 at a frequency of once or twice a week.
The MC38 cell suspension was transplanted subcutaneously at 1.5×10^6 cells/0.1 ml to the right chest of 6-week-old C57BL/6JJcl mice (CLEA Japan, Inc.).
The tumor was grown until reaching a tumor volume (TV) of 80 to 230 mm^3 after the transplantation. Degimatic Caliper was used for tumor diameter measurement. The major diameter and the minor diameter of the tumor were measured, and TV was calculated from the following equation.
as §3
By a stratified random allocation method using TV as an index, 5 animals were allocated to each group. The day when grouping (n=5) was performed was defined as Day 0. […]
For detecting expression of immunity-related factors, flow cytometric analysis was performed for immunological monitoring. […] Thereafter, the isolated lymphocytes were stained with antibodies below, and then, analyzed using Flow Cytometer FACSVerse (BD Bioscience). […]

[4] = tested on: mouse colon cancer cell line MC38; assay: Antitumor effect in MC38 transplanted wild type (immune proficient) C57BL/6JJcl mice (Example 2)
Method: as §1, §2, §3, §4, §5, §6

[5] = immune deficient CB17/Icr-Prkdc[scid]/CrlCrlj mice, 25.0 mg/kg/day qd Day 1-21 po
[6] = wild type C57BL/6JJcl mice, 25.0 mg/kg/day qd Day 1-21 po

SMILES: CC(C)(O)Cc1ccc(-c2ccc(C(=O)N3CC[C@H](N)C3)cc2-c2ccc(C#N)c(F)c2)c(F)c1 [Compound A, 4-[5-[(3S)-3-aminopyrrolidine-1-carbonyl]-2-[2-fluoro-4-(2-hydroxy-2-methyl-propyl)phenyl]phenyl]-2-fluoro-benzonitrile]
- Body weight change Day 22 Mean ± SE [1, 5]: 9.2 ± 4.2%
- Tumor volume Day 22 Mean ± SE [1, 5]: 2431.6 ± 359.7 mm^3
- antitumor effect: TV on Day 22 as compared to the control group ([1]; immune deficient mice, Aspin-Welch's t-test): didn't exhibit any antitumor effect
- antitumor effect: TV on Day 22 as compared to the control group [2]: significantly lower TV
- ratio of gMDSC (CD45 positive, CD90.2 negative, CD11b positive, Ly6G positive cells) in leucocytes as compared to the control group [3]: significantly lower
- Body weight change Day 22 Mean ± SE [4, 6]: 2.6 ± 1.2%
- Tumor volume Day 22 Mean ± SE [4, 6]: 969.3 ± 114.7 mm^3
- antitumor effect: TV on Day 22 as compared to the control group ([4]; wild type mice, Aspin-Welch's t-test): significantly lower TV
